This note sets out measurements from patent US10076519B2 (CYTOKINETICS, INC., priority 2010, dated 2018).

Each structure is given as a SMILES string.

For one assay, the system named is rabbit skeletal myofibrils (fast skeletal myofibrils). In words: Activation of fast skeletal myofibrils (PUMA assay, PK/LDH-coupled ATPase at pCa25). It is filed as biochemical. As to conditions: AC1.4 determined according to the procedure of Example 39; reported as class symbols. Put shortly: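 ATPase activity of Triton-washed rabbit skeletal myofibrils, roughly 90% fast fibres, tracked by NADH loss at 340 nm through a PK/LDH-coupled ADP-regenerating system. Calcium set to 25% of maximal activity (pCa25), in PIPES 12 mM pH 6.8 with 2 mM MgCl2 and 1 mM DTT; AC1.4 reported.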
For the compound `COC(=O)N1CC(CNc2ccc(-c3ccc4[nH]ncc4c3)nn2)(c2ncccc2F)C1` [methyl 3-(3-fluoro(2-pyridyl))-3-{[(6-(1H-indazol-5-yl)pyridazin-3-yl)amino]methyl}azetidine-carboxylate], the “Mean AC1.4” value is listed as “D (D=>20 uM)”.
On the same count and under the same terms, for `Nc1n[nH]c2ccc(-c3ccc(NCC4(c5ccc(F)cc5)CCCCC4)nn3)cc12` [[6-(3-amino(1H-indazol-5-yl))pyridazin-3-yl]{[(4-fluorophenyl)cyclohexyl]meth-yl}amine] the value was “A (A=<1 uM)”; for `CC(C)(CNc1ccc(-c2cccc(C(N)=O)c2)nn1)c1ccccc1F` [3-(6-{[2-(2-fluorophenyl)-2-methylpropyl]amino}pyridazin-3-yl)benzamide], “A (A=<1 uM)”.
The same measure, in the same setting: for `CNc1n[nH]c2ccc(-c3ccc(NCC(C)(C)c4ccc(F)cc4)nn3)cc12` [[2-(4-fluorophenyl)-2-methylpropyl]{6-[3-(methylamino)(1H-indazol-5-yl)]pyridazin-3-yl}amine] the value was “B (B=1-10 uM)”; for `C[C@@H](CNc1ccc(-c2cccc(C(N)=O)c2)nn1)c1ccc(F)cc1`, “B (B=1-10 uM)”.
The same measure, in the same setting: as for `CC(C)(C)OC(=O)N(CC(C)(C)c1ccc(F)cc1)c1ccc(-c2cc(C(N)=O)ccc2F)nn1`, the entry is “D (D=>20 uM)”.
Take `NC(=O)c1cccc(-c2ccc(NCCc3ccc(F)cc3F)nn2)c1`: the “Mean AC1.4” value is on record as “D (D=>20 uM)”.
The same measure, in the same setting: for `CC(C)(CNc1ccc(-c2ccc3c(N)n[nH]c3c2)nn1)c1ccc(F)cc1` [[6-(3-amino(1H-indazol-6-yl))pyridazin-3-yl][2-(4-fluorophenyl)-2-methylpropyl]amine] the value was “A (A=<1 uM)”; for `CS(=O)(=O)N1CC(CNc2ccc(-c3ccc4[nH]ncc4c3)nn2)(c2ncccc2F)C1` [3-(3-fluoro(2-pyridyl))-3-{[(6-(1H-indazol-5-yl)pyridazin-3-yl)amino]methyl}-1-(methylsulfonyl)azetidine], “D (D=>20 uM)”; for `CCc1n[nH]c2ccc(-c3ccc(NCC(C)(C)c4ccc(F)cc4)nn3)cc12` [[6-(3-ethyl(1H-indazol-5-yl))pyridazin-3-yl][2-(4-fluorophenyl)-2-methylpropyl]amine], “B (B=1-10 uM)”.
Same read-out and setting: as for `Fc1ccc(C2(CNc3ccc(-c4ccc5[nH]ncc5c4)nn3)CCC2)cc1` [(6-(1H-indazol-5-yl)pyridazin-3-yl){[(4-fluorophenyl)cyclo-butyl]methyl}amine], the entry is “A (A=<1 uM)”; as for `CC(C)(CNc1ccc(-c2ccc3[nH]ncc3c2)nn1)c1ccc(F)cc1` [(6-(1H-indazol-5-yl)pyridazin-3-yl)[2-(4-fluorophenyl)-2-methylpropyl]amine], “A (A=<1 uM)”; as for `c1cnc(C2(CNc3ccc(-c4ccc5[nH]ncc5c4)nn3)CCC2)cn1` [(6-(1H-indazol-5-yl)pyridazin-3-yl)[(pyrazin-2-ylcyclobutyl)methyl]amine], “C (C=10-20 uM)”.
On to `O=C(O)c1cc(C(=O)O)cc(-c2ccc(NCC3(c4ncccc4F)CCC3)nn2)c1`, for which the “Mean AC1.4” value is given as “D (D=>20 uM)”.
On the same count and under the same terms, for `CCC(CNc1ccc(-c2cccc(C(N)=O)c2)nn1)c1ccccc1F` (centres unmarked) [3-(6-{[2-(2-fluoro-phenyl)butyl]amino}pyridazin-3-yl)benzamide] the value was “B (B=1-10 uM)”.
On the same count and under the same terms, as for `NC(=O)c1cc(C(N)=O)cc(-c2ccc(NCC3(c4ncccc4F)CCC3)nn2)c1`, the entry is “B (B=1-10 uM)”; as for `CC(C)(O)c1cccc(C(C)(C)CNc2ccc(-c3ccc4[nH]nc(N)c4c3)nn2)c1`, “C (C=10-20 uM)”; as for `NC(=O)c1cccc(-c2ccc(NCCc3ccccn3)nn2)c1` [3-{6-[(2-(2-pyridyl)ethyl)amino]pyridazin-3-yl}benzamide], “D (D=>20 uM)”.

Still in this assay, the particulars now being: median AC1.4 class, procedure of Example 39.
Take `NC(=O)CNC(=O)c1cnc(-c2ccc(NCC3(c4ncccc4F)CCC3)nn2)s1` [N-(carbamoylmethyl){2-[6-({[(3-fluoro(2-pyridyl))cyclobutyl]methyl}ami-no)pyridazin-3-yl](1,3-thiazol-5-yl)}carboxamide]: the “Mean AC1.4” value is “A (A=<1 uM)”.
Same read-out and setting: for `COc1cccc(-c2ccc(NC3(c4ccc(F)cc4)CCC3)nn2)n1` [[(4-fluorophenyl)cyclobutyl][6-(6-methoxy(2-pyridyl))pyridazin-3-yl]amine] the value was “B (B=1-10 uM)”.
On the same count and under the same terms, for `O=C(NCc1cnc(-c2ccc(NCC3(c4ncccc4F)CCC3)nn2)s1)c1ncn[nH]1` [1H-1,2,4-triazol-5-yl-N-({2-[6-({[(3-fluoro(2-pyridyl))cyclobutyl]methyl}ami-no)pyridazin-3-yl](1,3-thiazol-5-yl)}methyl)carboxamide] the value was “A (A=<1 uM)”; for `Fc1cccnc1C1(CNc2ccc(-c3nc4c(s3)CNC4)nn2)CCC1` [{[(3-fluoro(2-pyridyl))cyclobutyl]methyl}(6-(3-pyrrolino[3,4-d]1,3-thiazol-2-yl)pyridazin-3-yl)amine], “D (D=>20 uM)”; for `NC(=O)c1ccc(F)c(-c2ccc(NC3(c4ncccc4Cl)CCC3)nn2)c1`, “A (A=<1 uM)”.
The same measure, in the same setting: for `CCOC(=O)c1cc(-c2ccc(NCC3(c4ncccc4F)CCC3)nn2)on1` the value was “D (D=>20 uM)”.
`O=C1CN(C(=O)c2cnc(-c3ccc(NCC4(c5ncccc5F)CCC4)nn3)s2)CCN1` [4-({2-[6-({[(3-fluoro-2-pyridyl)cyclobutyl]methyl}ami-no)pyridazin-3-yl]-1,3-thiazol-5-yl}carbonyl)piperazin-2-one]: the “Mean AC1.4” value was “C (C=10-20 uM)”.
Same read-out and setting: as for `Cn1c(C(N)=O)cnc1-c1ccc(NCC2(c3ncccc3F)CCC2)nn1` [2-[6-({[(3-fluoro(2-pyridyl))cyclobutyl]methyl}ami-no)pyridazin-3-yl]-1-methylimidazole-5-carboxamide], the entry is “B (B=1-10 uM)”; as for `Nc1ncccc1-c1ccc(NCC2(c3ncccc3F)CCC2)nn1` [[6-(2-amino(3-pyridyl))pyridazin-3-yl]{[(3-fluoro(2-pyridyl))cyclobutyl]methyl}amine], “B (B=1-10 uM)”.
Same read-out and setting: as for `Cn1cc(C(N)=O)nc1-c1ccc(NCC2(c3ncccc3F)CCC2)nn1` [2-[6-({[(3-fluoro(2-pyridyl))cyclobutyl]methyl}ami-no)pyridazin-3-yl]-1-methylimidazole-4-carboxamide], the entry is “D (D=>20 uM)”; as for `Fc1ccc(C2(Nc3ccc(-c4cccnc4OCC(F)(F)F)nn3)CCC2)cc1` [[(4-fluorophenyl)cyclobutyl]{6-[2-(2,2,2-trifluoroethoxy)(3-pyridyl)]pyridazin-3-yl}amine], “B (B=1-10 uM)”; as for `OC(c1cnc(-c2ccc(NCC3(c4ncccc4F)CCC3)nn2)s1)C(F)F` (centres unmarked) [2,2-difluoro-1-{2-[6-({[(3-fluoro(2-pyridyl))cyclobutyl]methyl}ami-no)pyridazin-3-yl](1,3-thiazol-5-yl)}ethan-1-ol], “B (B=1-10 uM)”.
On the same count and under the same terms, for `Nc1nccc(-c2ccc(NCC3(c4ncccc4F)CCC3)nn2)n1` [[6-(2-aminopyrimidin-4-yl)pyridazin-3-yl]{[(3-fluoro(2-pyridyl))cyclobutyl]methyl}amine] the value was “B (B=1-10 uM)”; for `NC(=O)C(N)c1cccc(-c2ccc(NCC3(c4ncccc4F)CCC3)nn2)c1` (centres unmarked), “C (C=10-20 uM)”.
As for `COc1nc(-c2ccc(NCC3(c4ncccc4F)CCC3)nn2)sc1C(=O)O` [2-[6-({[(3-fluoro(2-pyridyl))cyclobutyl]methyl}ami-no)pyridazin-3-yl]-4-methoxy-1,3-thiazole-5-carboxylic acid], the “Mean AC1.4” value is reported as “C (C=10-20 uM)”.
On the same count and under the same terms, for `Oc1ccc2nc(-c3ccc(NCC4(c5ncccc5F)CCC4)nn3)sc2n1` [2-[6-({[(3-fluoro-2-pyridyl)cyclobutyl]methyl}ami-no)pyridazin-3-yl]-1,3-thiazolino[5,4-b]pyridin-5-ol] the value was “B (B=1-10 uM)”.
Regarding `O=C(N[C@H]1CCNC1)c1ccc(F)c(-c2ccc(NC[C@]3(c4ncccc4F)C[C@H](F)C3)nn2)c1` [N-((3S)pyrrolidin-3-yl){4-fluoro-3-[6-({[3-fluoro-1-(3-fluoro(2-pyridyl))cyclobutyl]methyl}ami-no)pyridazin-3-yl]phenyl}carboxamide], the “Mean AC1.4” value is “B (B=1-10 uM)”.
Same read-out and setting: for `CNc1n[nH]c2ccc(-c3ccc(NC[C@]4(c5ncccc5F)C[C@H](F)C4)nn3)cc12` [{[3-fluoro-1-(3-fluoro(2-pyridyl))cyclobutyl]methyl}{6-[3-(methylamino)(1H-indazol-5-yl)]pyridazin-3-yl}amine] the value was “A (A=<1 uM)”; for `O=C(O)c1cc(-c2ccc(NCC3(c4ncccc4F)CCC3)nn2)on1`, “D (D=>20 uM)”.

The assay is the same for the next values; noted with them: median AC1.4 reported as class; procedure of Example 39.
In the case of `COC(=O)CCc1cnc(-c2ccc(NCC3(c4ncccc4F)CCC3)nn2)s1` [methyl 3-{2-[6-({[(3-fluoro-2-pyridyl)cyclobutyl]methyl}ami-no)pyridazin-3-yl]-1,3-thiazol-5-yl}propanoate], the “Mean AC1.4” value is “B (B=1-10 uM)”.
With `COc1c(C(N)=O)cccc1-c1ccc(NC[C@]2(c3ncccc3F)C[C@H](F)C2)nn1` [3-[6-({[3-fluoro-1-(3-fluoro(2-pyridyl))cyclobutyl]methyl}ami-no)pyridazin-3-yl]-2-methoxybenzamide], the “Mean AC1.4” value was “D (D=>20 uM)”.
On the same count and under the same terms, as for `O=C(Nc1ncco1)c1ccc(NCC2(c3ncccc3F)CCC2)nn1` [[6-({[(3-fluoro(2-pyridyl))cyclobutyl]methyl}ami-no)pyridazin-3-yl]-N-(1,3-oxazol-2-yl)carboxamide], the entry is “D (D=>20 uM)”; as for `CNC(=O)c1ccc(F)c(-c2ccc(NCC3(c4ncccc4F)CCC3)nn2)c1` [{4-fluoro-3-[6-({[(3-fluoro(2-pyridyl))cyclobutyl]methyl}ami-no)pyridazin-3-yl]phenyl}-N-methylcarboxamide], “A (A=<1 uM)”.
